Drawing on patent publication US20230183243A1, “HETEROARYL DERIVATIVES AND PHARMACEUTICAL COMPOSITION COMPRISING SAME AS ACTIVE INGREDIENT” (VORONOI INC., priority 2019, published 2023), this text covers remaining binding for one compound.

In one test the target is T1, FLT3(D835V) (Homo sapiens, UniProt P36888, D835V).
T1 construct: purchased DiscoverX Corp. (ScanMAX Kinase panel, commissioned)
Kind of test: ScanMAX Kinase panel (DiscoverX). In kind it is binding. To be noted: read-out: % Cont @ 1 μM. As for the experimental part: (§1) Specifically, the enzyme (kinase) selectivity of the compound of Example 7 selected from the Example compounds of the present invention was measured by commissioning DiscoverX Corp., and an experiment was performed using a panel for ScanMAX™ Kinase analysis.
(§2) In this case, the concentration of a drug treated with the enzyme was set at 1 μM in DMSO, and percent control (% control) was defined in the same manner as in the following Expression 1.
(§3) (Example compound−Positive control)/(Negative control−Positive control)×100 [Expression 1]
(§4) Wherein the positive control represents a compound having a percent control of 0%, and the negative control represents a compound having a percent control of 100% in DMSO. For the enzyme selectivity of the present invention, the compound was also judged to have activity against the corresponding enzyme when the percent control for each of the enzymes was <30% (i.e., less than 30%).

In another test the target is T2, MEK3 (Homo sapiens, UniProt P46734).
T2 construct: purchased DiscoverX Corp. (ScanMAX Kinase panel, commissioned)
T2 sequence (P46734 whole entry): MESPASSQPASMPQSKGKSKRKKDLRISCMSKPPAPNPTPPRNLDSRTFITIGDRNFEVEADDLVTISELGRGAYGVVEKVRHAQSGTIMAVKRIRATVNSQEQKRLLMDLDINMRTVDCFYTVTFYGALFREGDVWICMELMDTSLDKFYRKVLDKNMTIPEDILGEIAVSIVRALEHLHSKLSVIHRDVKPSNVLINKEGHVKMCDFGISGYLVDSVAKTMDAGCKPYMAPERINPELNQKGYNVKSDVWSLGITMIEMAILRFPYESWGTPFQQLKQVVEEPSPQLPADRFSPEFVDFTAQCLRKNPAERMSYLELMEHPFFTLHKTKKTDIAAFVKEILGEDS
Briefly: ScanMAX Kinase panel (DiscoverX). In kind it is binding. The settings on record: read-out: % Cont @ 1 μM. As for the experimental part:
as §1, §2, §3, §4

Regarding `COc1cc(-c2ccnn2C)ccc1Nc1nc(NC2CCCCC2)c2c(C#N)c[nH]c2n1` [Example 7, 4-(cyclohexylamino)-2-((2-methoxy-4-(1-methyl-1H-pyrazol-5-yl)phenyl)amino)-7H-pyrrolo[2,3-d] pyrimidine-5-carbonitrile], the remaining binding at 1 µM was found to be 5.6% at FLT3(D835V) and 18% on MEK3.
